Source: patent US20240358777A1, “COMPOSITIONS COMPRISING BACILLUS AMYLOLIQUEFACIENS FOR PREVENTING AND TREATING ULCERATIVE COLITIS” (Artugen Therapeutics Ltd., priority 2021, published 2024)
In brackets after ≈: the same amount, converted by molar mass.

How the values were obtained:
ART24 [1] = test: Additional EFSA-recommended MIC studies on ART24 lots and cell banks (Table 7); assay type: cell-based, Bacillus amyloliquefaciens
Protocol: The minimum inhibitory concentration (MIC) of the listed antimicrobials is expressed as μg/mL. Additional studies following EFSA testing recommendations were performed on lyophilized ART24 lots CO-33-10A2 and CO-33-12A2 and Research and Master Cell Banks CO-33-ART24 BHI and CO-33-ART24 SYD, and those results are shown in Table 7.

ART24 [2] = test: Antibiotic susceptibility of ART24, MIC, VetMIC Lact-1 & Lact-2 panels (Table 6); assay type: cell-based, Bacillus amyloliquefaciens; conditions: for MIC: Bacillus amyloliquefaciens, read-out: ART24 MIC
Protocol: The minimum inhibitory concentration (MIC) of the listed antimicrobials is expressed as μg/mL. […] From this suspension 46 μL was transferred in to 23 mL of 90% Iso-Sensitest Broth (CM0473, Oxoid) containing 10% BHI broth to end with a final inoculum concentration of 5×10^5 CFU/mL. The wells of the prefabricated 96-well plates were filled with 100 μL of the final suspension. The plates were sealed with an […], Sigma Aldrich) sealing film (to facilitate growth of the […] strains. The plates were then incubated for 24 hr at 37° C. The results are recorded after 24 hours as the lowest concentration of the antibiotic to inhibit visible growth. The prefabricated panels […], Uppsala, Sweden) comprising the antibiotics ampicillin, vancomycin, gentamicin, kanamycin, streptomycin, erythromycin, clindamycin, tetracycline, chloramphenicol, neomycin, penicillin, quinupristin-dalfopristin, linezolid, trimethoprim, ciprofloxacin and rifampicin were used.

[3] = Bacillus amyloliquefaciens, source CO-33-10A2 (lyophilized lot), read-out: MIC
[4] = Bacillus amyloliquefaciens, source CO-33-12A2 (lyophilized lot), read-out: MIC
[5] = Bacillus amyloliquefaciens, source CO-33 ART 24 BHI, read-out: MIC
[6] = Bacillus amyloliquefaciens, source CO-33 ART 024 SYD, read-out: MIC
[7] = 24 hr at 37° C., average results from N = 6
[8] = source CO-33-10A2 (lyophilized lot)
[9] = source CO-33-12A2 (lyophilized lot)

Row | Molecule | MIC (ART24 [1]; [3]) | MIC (ART24 [1]; [4]) | MIC (ART24 [1]; [5]) | MIC (ART24 [1]; [6]) | MIC (ART24 [2]; [7]) | MIC interpretation (ART24 [1]; source CO-33-10A2) | MIC interpretation (ART24 [1]; source CO-33-12A2) | MIC interpretation (ART24 [1]; source CO-33 ART 24 BHI) | MIC interpretation (ART24 [1]; source CO-33 ART 024 SYD) | other results
1 | COc1cc(Cc2cnc(N)nc2N)cc(OC)c1OC [Trimethoprim] | ≤ 0.25 µg/mL | < 0.25 µg/mL | < 0.25 µg/mL | < 0.25 µg/mL | < 0.12 µg/mL | – | – | – | – | –
2 | Cc1ncc([N+](=O)[O-])n1CCO [Metronidazole] | – | – | – | – | – | – | – | – | – | MIC (ART24 [1]; Bacillus amyloliquefaciens, aerobic, source CO-33-10A2, read-out: MIC): > 64 µg/mL; MIC (ART24 [1]; Bacillus amyloliquefaciens, aerobic, source CO-33-12A2, read-out: MIC): > 64 µg/mL; MIC (ART24 [1]; Bacillus amyloliquefaciens, aerobic, source CO-33 ART 24 BHI, read-out: MIC): > 64 µg/mL; MIC (ART24 [1]; Bacillus amyloliquefaciens, aerobic, source CO-33 ART 024 SYD, read-out: MIC): > 64 µg/mL; MIC (ART24 [1]; Bacillus amyloliquefaciens, anaerobic, source CO-33-10A2, read-out: MIC): 64 µg/mL (≈ 374 µM); MIC (ART24 [1]; Bacillus amyloliquefaciens, anaerobic, source CO-33-12A2, read-out: MIC): 64 µg/mL (≈ 374 µM); MIC (ART24 [1]; Bacillus amyloliquefaciens, anaerobic, source CO-33 ART 24 BHI, read-out: MIC): 64 µg/mL (≈ 374 µM); MIC (ART24 [1]; Bacillus amyloliquefaciens, anaerobic, source CO-33 ART 024 SYD, read-out: MIC): 64 µg/mL (≈ 374 µM)
3 | Quinupristin-dalfopristin | – | – | – | – | – | – | – | – | – | MIC (ART24 [1]; [8]): 1 µg/mL; MIC (ART24 [1]; [9]): 2 µg/mL; MIC (ART24 [1]; source CO-33 ART 24 BHI): 2 µg/mL; MIC (ART24 [1]; source CO-33 ART 024 SYD): 2 µg/mL; ART24 MIC (ART24 [2]; [7]): 4 µg/mL
4 | [H]/N=C(/N)N[C@H]1[C@H](O)[C@@H](O)[C@H](O[C@@H]2O[C@@H](C)[C@](O)(C=O)[C@H]2O[C@@H]2O[C@@H](CO)[C@H](O)[C@@H](O)[C@@H]2NC)[C@@H](N/C(N)=N\[H])[C@@H]1O [Streptomycin] | 1 µg/mL (≈ 1.72 µM) | 1 µg/mL (≈ 1.72 µM) | 1 µg/mL (≈ 1.72 µM) | 2 µg/mL (≈ 3.44 µM) | 4 µg/mL (≈ 6.88 µM) | (S) | (S) | (S) | (S) | –
5 | Neomycin | – | – | – | – | – | – | – | – | – | MIC (ART24 [1]; [8]): ≤0.12 µg/mL; MIC (ART24 [1]; [9]): ≤0.12 µg/mL; MIC (ART24 [1]; source CO-33 ART 24 BHI): ≤0.12 µg/mL; MIC (ART24 [1]; source CO-33 ART 024 SYD): ≤0.12 µg/mL; ART24 MIC (ART24 [2]; [7]): ≤0.5 µg/mL
6 | CC[C@H]1OC(=O)[C@H](C)[C@@H](O[C@H]2C[C@@](C)(OC)[C@@H](O)[C@H](C)O2)[C@H](C)[C@@H](O[C@@H]2O[C@H](C)C[C@H](N(C)C)[C@H]2O)[C@](C)(O)C[C@@H](C)C(=O)[C@H](C)[C@@H](O)[C@]1(C)O [Erythromycin] | 0.06 µg/mL (≈ 0.0818 µM) | 0.06 µg/mL (≈ 0.0818 µM) | 0.12 µg/mL (≈ 0.164 µM) | 0.12 µg/mL (≈ 0.164 µM) | 0.12 µg/mL (≈ 0.164 µM) | (S) | (S) | (S) | (S) | –
7 | O=C(N[C@H](CO)[C@H](O)c1ccc([N+](=O)[O-])cc1)C(Cl)Cl [Chloroamphenicol, Chloramphenicol] | 2 µg/mL (≈ 6.19 µM) | 2 µg/mL (≈ 6.19 µM) | 2 µg/mL (≈ 6.19 µM) | 2 µg/mL (≈ 6.19 µM) | 4 µg/mL (≈ 12.4 µM) | (S) | (S) | (S) | (S) | –
8 | CO[C@H]1/C=C/O[C@@]2(C)Oc3c(C)c(O)c4c(O)c(c(/C=N/N5CCN(C)CC5)c(O)c4c3C2=O)NC(=O)/C(C)=C\C=C\[C@H](C)[C@H](O)[C@@H](C)[C@@H](O)[C@@H](C)[C@H](OC(C)=O)[C@@H]1C [Rifampicin] | 0.25 µg/mL (≈ 0.304 µM) | 0.25 µg/mL (≈ 0.304 µM) | 0.25 µg/mL (≈ 0.304 µM) | 0.25 µg/mL (≈ 0.304 µM) | 0.5 µg/mL (≈ 0.608 µM) | (S) | (S) | (S) | (S) | –
9 | CCc1c(Cl)c(O)c(Cl)c(O)c1C(=O)O[C@H]1[C@H](O)[C@H](OC)[C@H](OC/C2=C\C=C\C[C@H](O)/C(C)=C/[C@H](CC)[C@@H](O[C@@H]3OC(C)(C)[C@@H](OC(=O)C(C)C)[C@H](O)[C@@H]3O)/C(C)=C/C(C)=C/C[C@@H]([C@@H](C)O)OC2=O)O[C@@H]1C [Fidaxomicin] | 2 µg/mL (≈ 1.89 µM) | 4 µg/mL (≈ 3.78 µM) | 4 µg/mL (≈ 3.78 µM) | 4 µg/mL (≈ 3.78 µM) | – | – | – | – | – | –
10 | CN(C)[C@@H]1C(O)=C(C(N)=O)C(=O)[C@@]2(O)C(O)=C3C(=O)c4c(O)cccc4[C@@](C)(O)[C@H]3C[C@@H]12 [Tetracycline] | 2 µg/mL (≈ 4.5 µM) | 2 µg/mL (≈ 4.5 µM) | 2 µg/mL (≈ 4.5 µM) | 2 µg/mL (≈ 4.5 µM) | 4 µg/mL (≈ 9 µM) | (S) | (S) | (S) | (S) | –
11 | CC1(C)S[C@@H]2[C@H](NC(=O)[C@H](N)c3ccccc3)C(=O)N2[C@H]1C(=O)O [Ampicillin] | ≤ 0.03 µg/mL | ≤ 0.03 µg/mL | ≤ 0.03 µg/mL | ≤ 0.03 µg/mL | 0.25 µg/mL (≈ 0.715 µM) | (S) | (S) | (S) | (S) | –
12 | CC(=O)NC[C@H]1CN(c2ccc(N3CCOCC3)c(F)c2)C(=O)O1 [Linezolid] | 0.25 µg/mL (≈ 0.741 µM) | 0.5 µg/mL (≈ 1.48 µM) | 0.5 µg/mL (≈ 1.48 µM) | 0.5 µg/mL (≈ 1.48 µM) | 0.5 µg/mL (≈ 1.48 µM) | – | – | – | – | –
13 | NC[C@H]1O[C@H](O[C@H]2[C@H](O)[C@@H](O[C@H]3O[C@H](CO)[C@@H](O)[C@H](N)[C@H]3O)[C@H](N)C[C@@H]2N)[C@H](O)[C@@H](O)[C@@H]1O [Kanamycin] | ≤ 0.5 µg/mL | ≤ 0.5 µg/mL | ≤ 0.5 µg/mL | ≤ 0.5 µg/mL | ≤ 2 µg/mL | (S) | (S) | (S) | (S) | –
14 | Penicillin | – | – | – | – | – | (S) | (S) | (S) | (S) | MIC (ART24 [1]; [8]): ≤0.03 µg/mL; MIC (ART24 [1]; [9]): ≤0.03 µg/mL; MIC (ART24 [1]; source CO-33 ART 24 BHI): ≤0.03 µg/mL; MIC (ART24 [1]; source CO-33 ART 024 SYD): 0.06 µg/mL; ART24 MIC (ART24 [2]; [7]): 0.12 to 0.5 µg/mL
15 | CCC[C@@H]1C[C@@H](C(=O)N[C@@H]([C@H]2O[C@H](SC)[C@H](O)[C@@H](O)[C@H]2O)[C@H](C)Cl)N(C)C1 [Clindamycin] | 0.12 µg/mL (≈ 0.282 µM) | 0.25 µg/mL (≈ 0.588 µM) | 0.25 µg/mL (≈ 0.588 µM) | 0.25 µg/mL (≈ 0.588 µM) | 0.5 to 1 µg/mL (≈ 1.18 to 2.35 µM) | (S) | (S) | (S) | (S) | –
16 | CN[C@H](CC(C)C)C(=O)N[C@H]1C(=O)N[C@@H](CC(N)=O)C(=O)N[C@H]2C(=O)N[C@H]3C(=O)N[C@H](C(=O)N[C@H](C(=O)O)c4cc(O)cc(O)c4-c4cc3ccc4O)[C@H](O)c3ccc(c(Cl)c3)Oc3cc2cc(c3O[C@@H]2O[C@H](CO)[C@@H](O)[C@H](O)[C@H]2O[C@H]2C[C@](C)(N)[C@H](O)[C@H](C)O2)Oc2ccc(cc2Cl)[C@H]1O [Vancomycin] | – | – | – | – | – | (S) | (S) | (S) | (S) | MIC (ART24 [1]; Bacillus amyloliquefaciens, source CO-33-10A2 (lyophilized lot)): ≤ 0.25 µg/mL; MIC (ART24 [1]; Bacillus amyloliquefaciens, source CO-33-12A2 (lyophilized lot)): ≤ 0.25 µg/mL; MIC (ART24 [1]; Bacillus amyloliquefaciens, source CO-33 ART 24 BHI): 0.5 µg/mL (≈ 0.345 µM); MIC (ART24 [1]; Bacillus amyloliquefaciens, source CO-33 ART 024 SYD): ≤ 0.25 µg/mL; MIC (ART24 [2]; 24 h): 0.5 to 1 µg/mL (≈ 0.345 to 0.69 µM)
17 | O=C(O)c1cn(C2CC2)c2cc(N3CCNCC3)c(F)cc2c1=O [Ciprofloxacin] | ≤ 0.03 µg/mL | ≤ 0.03 µg/mL | ≤ 0.03 µg/mL | ≤ 0.03 µg/mL | ≤ 0.25 µg/mL | (S) | (S) | (S) | (S) | –
